Test results taken from US12582622B2, “Sodium oxybate to treat idiopathic hypersomnia” (priority 2020, dated 2026).

Assays:
[1] = system: subjects with Idiopathic Hypersomnia; assay: Study of the efficacy of sodium oxybate (Xyrem) oral solution: ESS, PGIc, IHSS (Example 2); assay type: in vivo, human; settings: randomized withdrawal portion of the trial
Text: (§1) This is a study of the efficacy and safety of sodium oxybate (Xyrem) oral solution in subjects with Idiopathic Hypersomnia. The study design is analogous to the study described in Example 1.
During the Open-label Treatment Titration and Optimization Period subjects will initiate sodium oxybate as either as a once or twice nightly dosing regimen at the discretion of the investigator. The dosing regimen of sodium oxybate may be adjusted as described in Example 1 until an optimally effective and tolerable dose regimen is established. The aim of the sodium oxybate dose titration and optimization is to maximize efficacy (reduction in IH symptoms, e.g., EDS, sleep inertia, and long sleep duration) while ensuring adequate nocturnal sleep and minimizing risk associated with safety and tolerability.
Subjects who have reached an optimized dosing regimen, and who have completed the Open label Treatment Titration and Optimization Period, will then enter the 2-week Stable Dose Period as described in Example 1.
Subjects who meet the randomization criteria at the end of the Stable Dose Period will be randomized to receive sodium oxybate at the stable dose and regimen or placebo at a volume and regimen equivalent to the sodium oxybate dose and regimen for 2 weeks. Randomization will be stratified by the subject's use of stimulant agent at baseline per the following baseline medication groups: 1) subjects not currently taking sodium oxybate but are taking a stimulant or alerting agent; or 2) subjects not currently taking sodium oxybate or a stimulant or alerting agent.
(§2) Subjects who complete the Double-blind Randomized Withdrawal Period will enter a 24-week Open-label Safety Extension Period as described in Example 1. A Safety Follow-up visit will occur 2 weeks after the Open-label Safety Extension Period (completion of study).

[2] = system: subjects with Idiopathic Hypersomnia; assay: Safety of sodium oxybate (Xyrem) oral solution (Example 2); set-up: species or system human; settings: in vivo
Text: as §1, §2

[3] = system: narcolepsy; settings: in vivo; cited from earlier work

SMILES | ESS score during randomized withdrawal [1] | IHSS during randomized withdrawal [1] | change in PGIc scores during randomized withdrawal [1] | overall safety profile [2] | REM latency [3] | signs and symptoms of narcolepsy (daytime sleepiness, cataplexy, sleep paralysis, hypnagogic hallucinations) [3] | sleep apnea [3] | total sleep time and REM sleep [3]
O=C(O)CCCO [sodium oxybate] | clinically meaningful maintenance of efficacy | clinically meaningful maintenance of efficacy | clinically meaningful maintenance of efficacy | consistent with that previously reported for sodium oxybate (Xyrem) | – | – | – | –
O=C(O)CCCO [GHB, gamma-hydroxybutyrate] | – | – | – | – | decreases | substantially reduces | reduces | increases
